Assay [1] in a line: Plasma methionine and thiols after diet, methionine precursor and methioninase. In kind it is in vivo, nude mice. Conditions: met^- hcy^- chl^- diet, 8 h after precursor 50 mg/kg ip, no methioninase. How it is done:
The methionine peak is marked with an asterik.
FIG. 7A: homocysteine thiolactone; FIG. 7B: homocysteine thiolactone+methioninase; FIG. 7C: homocystine; and FIG. 7D: homocystin+methioninase. All animals were killed 6 hours after the injection of the methionine precursor.
^1 Levels of total thiols in circulation 8 hours after injection (ip)
of met precursor and 6 hours after treatment with methioninase. Mean of 3
determinations ± SD. MET precursor was 50 mg/kg; methioninase
(abbreviated METH.) was 1000k U/kg.

For another assay, the system named is H-1623. In words: Cytotoxicity of BCNU. Format: cell-based. Conditions: Homo sapiens, 1 h BCNU, 4 days. How it is done: (§1) The cytotoxicity of BCNU on cultured cells in MET^+ HCY^+ and MET^- HCY^+ was measured by a modification of the method of Branch et. al. (1993) as follows: methionine-dependent cells were seeded and cultured in MET^+ HCY^- in 35 mm petri dishes until they were nearly confluent. The cells were then transferred in MET^- HCY^+ and cultured for an additional 4 to 6 days at which time cell numbers were reduced due to cell death and inhibition of mitosis. Dead cells were removed and medium was replaced on a daily basis. Following this period in MET^- HCY^+ medium, remaining live cells were washed with PBS and then treated with various concentrations of BCNU in PBS for 1 hour at 37° C. while they were still attached. Subsequently, the BCNU was removed, replaced with MET^+ HCY^- medium and cultures were incubated for an additional 4 days at 37° C. in 6% CO2. At that time cells were trypsinized and counted using a Coulter-Counter (Coulter Electronics, Hialeah Fla.). The concentration of the drug that halves the growth rate of the tumor cells (IC50), was determined from plots of BCNU concentrations versus the percent change in cell numbers as compared to untreated controls within a four day interval from treatment (Jackson, 1992). The IC50 of BCNU on methionine-dependent cells cultured in MET^+ HCY^- or methionine independent cells cultured in either media was also determined by the same method.

Assay [2] has as its system Daoy. In words: Cytotoxicity of BCNU. In kind it is cell-based. Particulars: Homo sapiens. How it is done: as §1
Another assay concerns NIH-3T3. In words: Cytotoxicity of BCNU. Format: cell-based. Conditions: Mus musculus, NIH3T3, 1 h BCNU, 4 days. How it is done: as §1
For a further assay, the system named is H-1944. As to the kind of experiment: Cytotoxicity of BCNU. Conditions: Homo sapiens, 1 h BCNU, 4 days. In kind it is cell-based. How it is done: as §1
For the next assay, the system named is U-138. In words: Cytotoxicity of BCNU. Conditions: Homo sapiens, 1 h BCNU, 4 days. In kind it is cell-based. How it is done:
as §1

In the next assay the test system is D-341. As to the kind of experiment: Cytotoxicity of BCNU. In kind it is cell-based. Particulars: Homo sapiens, 1 h BCNU, 4 days. How it is done:
as §1

The next assay has as its system U-87. In words: Cytotoxicity of BCNU. Conditions: Homo sapiens, U-87 MG, U-87 (mer^-), 1 h BCNU, 4 days. In kind it is cell-based. How it is done: as §1
Assay [3] deals with MET-independent or mer^- tumor cell lines and normal cells. As to the kind of experiment: Cytotoxicity of BCNU (summary). Format: cell-based. Conditions: MET^- HCY^+ versus MET^+ HCY^-. How it is done:
as §1

The test system of assay [4] is Methionine-dependent, mer^+ tumor cells. As to the kind of experiment: Cytotoxicity of BCNU (summary). In kind it is cell-based. Particulars: Homo sapiens. How it is done:
as §1

In another assay the test system is SW-40. In words: Cytotoxicity of BCNU. Particulars: for IC50: Homo sapiens, SW-40 (mer^-), 1 h BCNU, 4 days. In kind it is cell-based, human. How it is done:
as §1

For a further assay, the system named is MGMT positive tumors. Particulars: prior depletion of MGMT; Dolan et al., 1993; Schold et al., 1996; cited from earlier work.
Assay [5] deals with MGMT. Conditions: some tumor cell lines; von Wronski et al., 1994; cited from earlier work.
The subject of assay [6] is Daoy. Particulars: 48 hrs from repletion following 10 days in HCY.
Assay [7] deals with MGMT. Particulars: Daoy; 48 hrs from repletion following 10 days in HCY.
Procedure: Detaching cells ascertained to be dead by trypan blue exclusion were removed by changing the medium every 48 hours. Cells were then either trypsinized and reseeded in the same medium or washed with PBS and supplied with the methionine-HCY^+ medium. Due to extensive death in this medium, it was necessary to remove detaching dead cells on a daily basis. Cells from both media were harvested at time intervals indicated and used to measure cell cycle status and MGMT activity. Cells from either cultures (5×10^7) were also harvested, washed with PBS and immediately frozen as a source of protein, DNA and RNA. All cells collected were live (>95%) as determined by trypan blue exclusion.
The [^3 H]DNA substrate for measurements of MGMT activity was synthesized as follows: One mCi ethanolic solution of N-[^3 H]methyl-N-nitrosourea (MNU) having specific activity 18.8 Ci/mmol (Amersham) was concentrated to 0.2 ml with a N2 stream and mixed with 1 ml of DNA solution (5 mg) in 0.02 M 2-amino-2-methyl-1,3-propanediol at pH 10. […]
The [^3 H]DNA contained 29.8 μCi of radioactivity (alkylation efficiency 3%) which was distributed as 3-methyladenine 3.5%, 7-MeG 79.6%, 1-methyladenine 0.6%, O^6 -MeG 9.0% and other adducts 7.3%. The specific activities of 7-MeG and O^6 -MeG were calculated to be 15.8±0.8 and 16.5±0.5 Ci/mmol respectively. […]
Where [8] appears, read: MET^+ HCY^- culture, read-out: IC50 (MET).
The mark [9] stands for this setting: MET^- HCY^+ culture, read-out: IC50 (HCY).

Structures are written as SMILES. Like-named read-outs stand apart in the source and are kept apart here.

As to `N[C@@H](CCSSCC[C@H](N)C(=O)O)C(=O)O` [homocystine], in assay [1], the CYS turned out to be 100 ± 4 µM, the GSH amounted to 56 ± 8 µM, the HCY was found to be 17 ± 2 µM and the MET stood at 6 ± 2 µM.
For orientation: IC50 means the midpoint of a concentration-inhibition curve. Turning to `O=NN(CCCl)C(=O)NCCCl` [BCNU, 1,3-bis (2-chloroethyl)-1-nitrosourea], the IC50 in the assay on H-1623 (NCI-H1623, MET^+ HCY^- culture, read-out: IC50 (MET)) is 90 µM; in the assay with H-1623 (NCI-H1623, MET^- HCY^+ culture, read-out: IC50 (HCY)), 10 µM; with Daoy [2] (MET^+ HCY^- culture, 1 h BCNU, counted after 4 days, read-out: IC50 (MET)), 45 µM; in the assay with Daoy [2] (cultured in MET^- HCY^+ 4 days before 1 h BCNU, read-out: IC50 (HCY)), ~5 µM; in the assay with NIH-3T3 (NIH-3T3, control mer+, methionine independent, MET^+ HCY^- culture, read-out: IC50 (MET)), 35 µM; with NIH-3T3 (NIH-3T3, MET^- HCY^+ culture, read-out: IC50 (HCY)), 40 µM. Further, the IC50 with H-1944 (NCI-H1944, MET^+ HCY^- culture, read-out: IC50 (MET)) worked out at 65 µM; with H-1944 (NCI-H1944, MET^- HCY^+ culture, read-out: IC50 (HCY)), 10 µM; with U-138 (setting [8]), 50 µM; in the assay with U-138 (setting [9]), 10 µM; in the assay on D-341 (D341, MET^+ HCY^- culture, read-out: IC50 (MET)) it was 65 µM; in the assay on D-341 (D341, MET^- HCY^+ culture, read-out: IC50 (HCY)), 10 µM. The IC50 with U-87 (setting [8]) is 15 µM; with U-87 (setting [9]) it was 15 µM; in assay [4] (cultured in MET^+ HCY^-), 45 to 90 µM; in assay [4] (cultured in MET^- HCY^+), 5 to 10 µM; in the assay on SW-40 (setting [8]) it was 10 µM; in the assay with SW-40 (setting [9]), 15 µM. Further, in assay [3], the “sensitivity to BCNU” value is on record as “unaffected”. Moreover, the “resistance to BCNU upon methionine depletion” value with SW-40 (SWB-40, mer^-, methionine-dependent) is recorded as “not affected”.
Regarding `Nc1nc(OCc2ccccc2)c2[nH]cnc2n1` [O^6 -benzylguanine], the “increase in the efficacy of alkylating drugs such as BCNU” value in the assay on MGMT positive tumors is on record as “Significant increase”.
Consider `Nc1ncn([C@@H]2O[C@H](CO)[C@@H](O)[C@H]2O)c(=O)n1` [5-azacytidine], for which the “increase of the MGMT activity” value in the assay with MGMT [5] is on record as “substantial increase”.
In assay [1], `NC1CCSC1=O` (centres unmarked) [homocysteine thiolactone] returned a CYS of 100 ± 13 µM, a GSH of 81 µM, an HCY of 20 ± 3 µM and an MET of 12 ± 3 µM.
In the case of `CSCC[C@H](N)C(=O)O` [methionine], the “doubling time after repletion of methionine” value with Daoy [6] stood at 22 h. Moreover, in the assay on MGMT [7], the “recovery of MGMT activity” value is 65 % of the base line.

The values are drawn from US6017962A, “Method of depletion of methionine in plasma and solid tumors and uses thereof” (Board of Regents, The University of Texas System, priority 1997, dated 2000).
